What was measured:
[1] = test system: CD8+ T cells in PBMCs from patients with metastatic castrate-resistant prostate cancer; assay: Patient PBMC restimulation assay (in vitro immunogenicity of neoantigens); assay type: cell-based, human; conditions: for Immunogenic: Patient PBMC restimulation, TNFα and IFNγ production by CD8+ T cells; for Maximum fold change over negative control: TNFα+IFNγ+CD8+ T cells, highest fold change across the PBMC donors evaluated, 9 mer peptide; for Maximum frequency of TNFα^+IFNγ^+CD8^+ T cells (Percent): greatest frequency among all tested PBMC donors, negative control 0.011-0.8 depending on patient
Procedure: PBMCs from human patients with metastatic castrate-resistant prostate cancer were thawed using media (RPMI 1640 supplemented with Glutamax, 10% HI FBS, and 1× Sodium Pyruvate). Cells were counted and plated in a 96 well round bottom microplate at a concentration of 250,000 viable cells per well. Lyophilized peptides were solubilized in 100% DMSO and diluted in media to 10 μg/mL. Neoantigen peptides were added in equal volume to PBMCs for a final concentration of 5 μg/mL. CEF Peptide Pool “Plus” (Cellular Technologies, Ltd.) was utilized as a positive control and DMSO at the same final concentration as the experimental peptides was utilized as a negative control. Human IL-15 (Peprotech) was added to all wells at final concentration of 10 ng/mL.
Plates were incubated at 37° C. (5% CO2) for a total of 13 days. Media was refreshed every 2 days with IL-15 (10 ng/mL final concentration) and IL-2 (R&D systems, 10 IU/mL final concentration). On day 12, PBMCs were re-stimulated with identical experimental peptides or controls, at same concentration as peptide stimulation on Day 1. After 1-hour incubation, protein Inhibitor Cocktail (eBioscience) was added to every well and plate was incubated overnight.
(§1) On day 13, cells were stained for intracellular flow cytometry analysis. The cells were washed with PBS and stained with Live/Dead Fixable Aqua Dead Cell stain (Thermo-Fisher). Following the live/dead stain, cells were blocked using Biotin-Free Fc Receptor Blocker (Accurate Chemical & Scientific Corp). Extracellular cellular flow panel (1 μL/antibody per well in 50 μL) consisted of CD3 PerCP-Cy5.5 (Biolegend), CD4 BV421 (Biolegend), and CD8 APC-Cy7 (Biolegend). After extracellular staining, cells were fixed using Foxp3/Transcription Factor Staining Buffer Set (eBioscience) and stained for intracellular proteins (1:50 dilution) using TNFα FITC (R&D Systems) and IFNγ BV785 (Biolegend). Cells were washed and resuspended in stain buffer and analyzed using a BD Celesta flow cytometer.
Flow cytometry cell staining analysis was completed using FlowJo v10. Cells were gated on live, singlet, CD3+ cells. The CD8+ T cells were analyzed for TNFα/IFNγ expression and the frequency of double positive TNFα/IFNγ CD8+ T cells was recorded. Responses were assessed to be positive when the frequency of double positive TNFα/IFNγ CD8+ T cells due to stimulation with an experimental peptide was increased greater than or equal to 2-fold over the DMSO only negative control for that patient. Peptides were analyzed in 1 to 7 patient samples.
The 9 mer fragments shown in Table 13 were assessed for their ability to activate T cells using the Patient PBMC restimulation assay described in Example 1 using TNFα and IFNγ production by CD8^+ T cells as a readout. Self-antigens shown in Table 15 were also used in the assays. […] PBMCs from ten patients were evaluated.

[2] = test system: autologous CD3+ Pan-T cells (CD8+ and CD4+ T cells) with peptide-pulsed CD1c+ Dendritic Cells; assay: Exogenous autologous normal donor restimulation assay (in vitro immunogenicity); assay type: cell-based, human; design: key to Max. Frequency of CD8+ TNFαINFγ DP / Max. Frequency of CD4+ TNFαINFγ DP: % of T cells double positive for TNFα/IFNγ; conditions: pool of overlapping 15-mer peptides, maximum across normal donors; for Maximum Fold Change Over Background CD4+ cells / Maximum Fold Change Over Background CD8+ cells / Maximum Frequency of TNFα/IFNγ Double Positive CD4+ T cells / Maximum Frequency of TNFα/IFNγ Double Positive CD8+ T cells: Table 25; for Maximum Fold Change Over Background CD4+ cells: TNFα+IFNγ+ CD4+ T cells; for Maximum Fold Change Over Background CD4+ cells / Maximum Fold Change Over Background CD8+ cells: over negative control; for Maximum Fold Change Over Background CD8+ cells: TNFα+IFNγ+ CD8+ T cells; for Max. Fold Change over background CD4+ TNFαINFγ double positive DP / Max. Fold Change over background CD8+ TNFαINFγ double positive DP / Max. Frequency of CD4+ TNFαINFγ DP / Max. Frequency of CD8+ TNFαINFγ DP: Table 28, additional neoantigens
Procedure: CD1c+ Dendritic Cells (DC) isolated from human normal PBMCs were thawed using media (IMDM (Gibco) supplemented with glutamine, HEPES, 5% human serum (Sigma), and 1× Pen-Strep). DC cells were resuspended in media supplemented with IL-4 (Peprotech, 80 ng/mL) and GM-CSF (Gibco, 80 ng/mL), plated in 6 well microplates, and rested overnight at 37° C. (5% CO2). The following day, DC cells were counted and plated in a 96 well round bottom microplate at a concentration of 30,000 viable cells per well. Lyophilized peptides (15-mer overlapping peptides) were solubilized in 100% DMSO and pooled by neoantigen to between 5 mg/mL and 20 mg/mL. Neoantigen peptides pools were added to DCs for a final concentration of 2.5 μg/mL to 10 μg/mL and rested for 2 hours at 37° C. (5% CO2). CEF Peptide Pool “Plus” (Cellular Technologies, Ltd.) was utilized as a positive control and DMSO at the same final concentration as the experimental peptides was utilized as a negative control. After 2 hours, DC cells were irradiated with 50 gray of ionizing radiation. Autologous CD3+ Pan-T cells isolated from human normal PBMCs were thawed using media. Following irradiation, autologous Pan-T cells were added to the irradiated DCs at 300,000 viable cells per well. Human IL-15 (Peprotech) was added to all wells at final concentration of 10 ng/mL.
Plates were incubated at 37° C. (5% CO2) for a total of 12 days. Media was refreshed every 2-3 days with IL-15 (10 ng/mL final concentration) and IL-2 (R&D systems, 10 IU/mL final concentration). On day 11 cells were re-stimulated with identical experimental peptide pools or controls, at same concentration as peptide stimulation on Day 1. Protein Inhibitor Cocktail (eBioscience) was added to every well and plate was incubated overnight at 37° C. (5% CO2).
as §1, with “12,” for “13,”
Flow cytometry cell staining analysis was completed using FlowJo v10. Cells were gated on live, singlet, CD3+ cells. The CD8+ and CD4+ T cells were analyzed for TNFα/IFNγ expression and the frequency of double positive TNFα/IFNγ CD8+ and the frequency of double positive TNFα/IFNγ CD4+ T cells were recorded. Responses were assessed to be positive when the frequency of double positive TNFα/IFNγ CD8+ or TNFα/IFNγ CD4+ T cells due to stimulation with an experimental peptide pool was increased greater than or equal to 3-fold over the DMSO only negative control for that donor and at least 0.01%.
Overlapping 15-mer peptides were designed to span each neoantigen incorporated into NeoGAd20 and NeoMVA to assess their ability to activate T cells using the exogenous autologous normal donor restimulation assay described in Example 1 as pools using TNFα and IFNγ production by CD8^+ and CD4^+ T cells as a readout.
Immunogenicity of various additional identified neoantigens was assessed. Overlapping 15-mer peptides were designed to span each neoantigen similarly to what was done in Example 11 to assess their ability to activate T cells using the exogenous autologous normal donor restimulation assay described in Example 1 as pools using TNFα and IFNγ production by CD8^+ and CD4^+ T cells as a readout.

| Substance | Immunogenic [1] | Maximum fold change over negative control [1] | Maximum frequency of TNFα^+IFNγ^+CD8^+ T cells (Percent) [1] [%] | Maximum Fold Change Over Background CD4+ cells [2] | Maximum Fold Change Over Background CD8+ cells [2] | Maximum Frequency of TNFα/IFNγ Double Positive CD4+ T cells [2] | Maximum Frequency of TNFα/IFNγ Double Positive CD8+ T cells [2] | Max. Fold Change over background CD4+ TNFαINFγ double positive DP [2] | Max. Fold Change over background CD8+ TNFαINFγ double positive DP [2] | Max. Frequency of CD4+ TNFαINFγ DP [2] | Max. Frequency of CD8+ TNFαINFγ DP [2] |
| --- | --- | --- | --- | --- | --- | --- | --- | --- | --- | --- | --- |
| GVPGDSTRRAVRRMNTF [Neoantigen P16] | Yes | 65.82 | 4.620 | 2.44 | 2.44 | 0.039 | 0.039 | – | – | – | – |
| HYKLIQQPISLFSITDRLHKTFSQLPSVHLCSITFQWGHPPIFCSTNDICVTANFCISVTFLKPCFLLHEASASQ [MS1] | – | – | – | 50.19 | 5.56 | 0.39 | 0.1 | – | – | – | – |
| NSKMALNSLNSIDDAQLTRIAPPRSHCCFWEVNAP [Neoantigen P35] | Yes | 2.67 | 0.064 | 3.47 | 14.44 | 0.03 | 0.26 | – | – | – | – |
| P19 (IPVLTRWPL) [Neoantigen P19] | – | – | – | – | – | – | – | 6.67 | 4.76 | 0.16 | 0.15 |
| P27 (FPVGAEGTF) [Neoantigen P27] | – | – | – | – | – | – | – | 45.38 | 7.87 | 0.05 | 0.59 |
| P37 (GVLRRLLCR) [Neoantigen P37] | – | – | – | – | – | – | – | 22.78 | 2.05 | 0.09 | 0.13 |
| P97 (LMAQRLLLR) [Neoantigen P97] | – | – | – | – | – | – | – | 3.14 | 7.47 | 0.12 | 1.11 |
| TMPAILKLQKNCLLSL [MS8] | – | – | – | 15.60 | 4.44 | 0.40 | 0.14 | – | – | – | – |
| YAYKDFLWCFPFSLVFLQEIQICCHVSCLCCICCSTRICLGCLLELFLSRALRALHVLWNGFQLHCQ [MS6] | – | – | – | 111.97 | 4.17 | 0.87 | 0.08 | – | – | – | – |

From patent US20230035403A1, “Method For Determining Responsiveness To Prostate Cancer Treatment” (Janssen Biotech, Inc., priority 2020, published 2023)
